Results reported in patent US20090182026A1, “ALPHA 2 ADRENERGIC AGONISTS” (ALLERGAN, INC., priority 2005, published 2009).
Entries after “also recorded” stand apart in the source; their conditions may differ. Values belong to the compound of their own block, whether it stands above or below them.

Assays:
Alpha adrenergic = Alpha adrenergic activity of prior-application compound (statement); settings: background statement
alpha2A receptor = biological target: T1, alpha2A receptor (Homo sapiens, UniProt P08913); assay: RSAT assay, alpha2A receptor; assay type: cell-based; settings: NIH-3T3 cells, relative to brimonidine, NA = not active at concentrations less than 10 micromolar
T1 construct: expressed in transfected cells; host or cells: NIH-3T3
T1 sequence (P08913 1-465): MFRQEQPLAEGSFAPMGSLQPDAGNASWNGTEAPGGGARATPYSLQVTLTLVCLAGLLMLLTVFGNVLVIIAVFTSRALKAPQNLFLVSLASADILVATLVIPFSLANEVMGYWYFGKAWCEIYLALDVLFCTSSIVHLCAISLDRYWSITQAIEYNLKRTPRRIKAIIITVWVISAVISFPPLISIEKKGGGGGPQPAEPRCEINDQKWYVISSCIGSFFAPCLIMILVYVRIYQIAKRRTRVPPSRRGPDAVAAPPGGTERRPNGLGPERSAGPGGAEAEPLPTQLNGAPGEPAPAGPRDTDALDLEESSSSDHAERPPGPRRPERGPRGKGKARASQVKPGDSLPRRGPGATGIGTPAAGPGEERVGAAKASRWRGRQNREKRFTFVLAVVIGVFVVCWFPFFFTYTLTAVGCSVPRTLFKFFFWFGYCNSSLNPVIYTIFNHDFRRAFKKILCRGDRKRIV
Experimental: (§1) The RSAT assay measures a receptor-mediated loss of contact inhibition that results in selective proliferation of receptor-containing cells in a mixed population of confluent cells. The increase in cell number is assessed with an appropriate transfected marker gene such as […], the activity of which can be easily measured in a 96-well format. Receptors that activate the G protein, Gq, elicit this response. Alpha2 receptors, which normally couple to Gi, activate the RSAT response when coexpressed with a hybrid Gq protein that has a Gi receptor recognition domain, called Gq/i5.
(§2) NIH-3T3 cells are plated at a density of 2×10^6 cells in 15 cm dishes and maintained in Dulbecco's modified Eagle's medium supplemented with 10% calf serum. One day later, cells are cotransfected by calcium phosphate precipitation with mammalian expression plasmids encoding p-SV-β-galactosidase (5-10 μg), receptor (1-2 μg) and G protein (1-2 μg). 40 μg salmon sperm DNA may also be included in the transfection mixture. Fresh media is added on the following day and 1-2 days later, cells are harvested and frozen in 50 assay aliquots. Cells are thawed and 100 μl added to 100 μl aliquots of various concentrations of drugs in triplicate in 96-well dishes. Incubations continue 72-96 hr at 37° C. After washing with phosphate-buffered saline, β-galactosidase enzyme activity is determined by adding […] of the chromogenic substrate (consisting of 3.5 mM o-nitrophenyl-β-D-galactopyranoside and 0.5% nonidet P-40 in phosphate buffered saline), incubating overnight at 30° C. and measuring optical density at 420 nm. The absorbance is a measure of enzyme activity, which depends on cell number and reflects a receptor-mediated cell proliferation. The efficacy or intrinsic activity is calculated as a ratio of the maximal effect of the drug to the maximal effect of a standard full agonist for each receptor subtype. Brimonidine, also called UK14304, the chemical structure of which is shown below, is used as the standard agonist for the alpha2A, alpha2B and alpha2C receptors. […]

alpha2B receptor = biological target: T2, alpha2B receptor (Homo sapiens, UniProt P18089); assay: RSAT assay, alpha2B receptor; assay type: cell-based; settings: NIH-3T3 cells, relative to brimonidine, NA = not active at concentrations less than 10 micromolar
T2 construct: expressed in transfected cells; host or cells: NIH-3T3
T2 sequence (P18089 1-450): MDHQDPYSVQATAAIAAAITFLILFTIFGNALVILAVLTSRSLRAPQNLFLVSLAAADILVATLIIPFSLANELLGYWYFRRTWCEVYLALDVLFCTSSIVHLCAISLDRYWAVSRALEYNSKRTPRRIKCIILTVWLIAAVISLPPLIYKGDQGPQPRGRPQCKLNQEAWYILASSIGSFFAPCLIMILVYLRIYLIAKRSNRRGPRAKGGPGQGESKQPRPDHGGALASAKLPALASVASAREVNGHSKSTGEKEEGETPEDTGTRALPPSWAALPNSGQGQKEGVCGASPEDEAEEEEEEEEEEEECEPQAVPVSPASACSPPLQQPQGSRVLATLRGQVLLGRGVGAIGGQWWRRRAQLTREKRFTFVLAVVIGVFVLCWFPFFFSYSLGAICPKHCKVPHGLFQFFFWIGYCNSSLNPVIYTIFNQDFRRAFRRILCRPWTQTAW
Experimental: as §1, §2

alpha2C receptor = biological target: T3, alpha2C receptor (Homo sapiens, UniProt P18825); assay: RSAT assay, alpha2C receptor; assay type: cell-based; settings: NIH-3T3 cells, relative to brimonidine, NA = not active at concentrations less than 10 micromolar
T3 construct: expressed in transfected cells; host or cells: NIH-3T3
T3 sequence (P18825 1-462): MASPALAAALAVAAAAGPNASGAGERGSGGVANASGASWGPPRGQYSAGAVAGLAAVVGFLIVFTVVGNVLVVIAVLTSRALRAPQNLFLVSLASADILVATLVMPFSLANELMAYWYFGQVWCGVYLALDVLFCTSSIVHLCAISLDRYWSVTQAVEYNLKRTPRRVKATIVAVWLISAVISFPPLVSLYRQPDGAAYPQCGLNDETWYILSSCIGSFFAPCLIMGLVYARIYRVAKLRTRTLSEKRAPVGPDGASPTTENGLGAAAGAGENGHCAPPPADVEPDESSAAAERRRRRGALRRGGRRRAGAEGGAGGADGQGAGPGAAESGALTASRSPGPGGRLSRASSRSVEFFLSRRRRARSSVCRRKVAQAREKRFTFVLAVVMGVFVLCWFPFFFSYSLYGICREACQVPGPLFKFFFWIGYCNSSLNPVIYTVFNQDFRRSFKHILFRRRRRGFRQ
Experimental: as §1, §2

α1 = assay: RSAT assay, α1 receptor; assay type: cell-based; settings: NIH-3T3 cells, ratio of maximal effect to that of standard full agonist, NA = not active at concentrations less than 10 micromolar
Experimental: as §1
NIH-3T3 cells are plated at a density of 2×10^6 cells in 15 cm dishes and maintained in Dulbecco's modified Eagle's medium supplemented with 10% calf serum. […] After washing with phosphate-buffered saline, β-galactosidase enzyme activity is determined by adding […] of the chromogenic substrate (consisting of 3.5 mM o-nitrophenyl-β-D-galactopyranoside and 0.5% nonidet P-40 in phosphate buffered saline), incubating overnight at 30° C. and measuring optical density at 420 nm. The absorbance is a measure of enzyme activity, which depends on cell number and reflects a receptor-mediated cell proliferation. The efficacy or intrinsic activity is calculated as a ratio of the maximal effect of the drug to the maximal effect of a standard full agonist for each receptor subtype. […]

tactile hypersensitivity = assay: Mouse model of tactile hypersensitivity (sulprostone); assay type: in vivo, Mice; settings: for activity in mouse model of tactile hypersensitivity: general statement, no dose
Experimental: Mice (5-6; 25-35 g) are injected with sulprostone (300 ng/kg intraperitoneal), a prostaglandin receptor agonist that activates EP1 prostaglandin receptors. This chemical stimulus results in sensitivity to light stroking of their flanks with a paintbrush, which is assessed every five minutes from 15 minutes to 50 minutes post-injection. Animals are scored as 0 (no response), 1 (avoidance) or 2 (vigorous avoidance, vocalization) every five minutes and the scores are summed to yield a total hypersensitivity score (maximum=16).
Compounds were tested for their ability to reduce the tactile hypersensitivity score when administered 15 min prior to the sulprostone. […] An oral dose of 300 ug/kg was also active. An ester prodrug, compound 3, was also tested orally.

[1] = test system: intraocular pressure (IOP); assay: IOP model, normotensive rabbits; assay type: in vivo, New Zealand Rabbits; settings: for lowering of IOP: qualitative statement (FIG. 2); for decrease in IOP: topical, rabbit eye (FIG. 2)
Experimental: Male New Zealand Rabbits (6-7; 2-3.5 kg) are used to evaluate drug effects on normotensive IOP measurements. The rabbits are carefully handled so as to minimize excitement. Approximately 25 ul of dilute OphtheticR (0.05%) topical anesthesia is administered to each eye. An initial IOP determination is made in both eyes. Rabbits with 3 mmHg or greater difference in IOP between its right and left eyes are replaced at this time.
Immediately following the T=0 reading in both eyes the rabbits are treated with the compound by a topical route. 35 ul of the test solution is instilled onto the cornea of the randomly selected test eye. Pressure readings are taken at various times post-instillation. Animals are kept in their cages with access to food and water between measurements. Pressure readings utilize a Model 30 Classic™ Pneumatonometer to measure intraocular pressure (IOP) non-invasively through applanation tonometry. compound 1 (0.1%) caused a 20% decrease in IOP and its ester, AGN 204216 (0.03%), caused a 30% decrease in IOP (FIG. 2)

locomotor activity [2] = assay: Sedation model, exploratory locomotor activity, rats; assay type: in vivo; settings: for rat locomotor activity: 30 min after dosing (FIG. 3)
Experimental: (§3) The utility of alpha2-adrenergic agonists is limited by a range of side effects, particularly sedation and cardiovascular depression. The sedative activity of the compounds is assessed by measuring their ability to reduce the exploratory activity of mice and rats when placed in a dark chamber 30 min following dosing. The animal's activity is determined automatically by placing it in a digicom analyzer chamber (Omnitech Electronic). These chambers have photocells criss-crossing the box that are broken as the animal moves around. The computer analyzes this movement and records total activity over a 5-min time period. […] This represents greater than a 300-fold margin of safety (FIG. 4).

locomotor activity [3] = assay: Sedation model, exploratory locomotor activity, mice; assay type: in vivo
Experimental: as §3

SMILES: O=c1[nH]cc(CC2CCC=C(CO)C2)[nH]1 (centres unmarked)
Alpha adrenergic activity (Alpha adrenergic): no Alpha adrenergic activity

Intrinsic activity α2A (alpha2A receptor): 0.81
Intrinsic activity α2B (alpha2B receptor): 0.86
Intrinsic activity α2C (alpha2C receptor): 0.95
SMILES: NCC1=CCCC(Cc2c[nH]c(=S)[nH]2)C1 (centres unmarked)

Intrinsic activity α2A (alpha2A receptor): 0.9
Intrinsic activity α2B (alpha2B receptor): 1.0
Intrinsic activity α2C (alpha2C receptor): 1.1
SMILES: OCC1=CCC[C@@H](Cc2c[nH]c(=S)[nH]2)C1
Intrinsic activity α1 (α1): 1.1

SMILES: OCC1=CCCC(Cc2c[nH]c(=S)[nH]2)C1 (centres unmarked) [Compound 1, 4-(3-hydroxymethyl-cyclohex-3-enylmethyl)-1,3-dihydro-imidazole-2-thione]
reduction of tactile hypersensitivity (tactile hypersensitivity; dosed intraperitoneally 15 min prior to sulprostone, dose response): reduced the hypersensitivity in a dose-related manner
effect on tactile hypersensitivity (tactile hypersensitivity; intraperitoneal, 30 ug/kg): partial effect
effect on tactile hypersensitivity (tactile hypersensitivity; intraperitoneal, 100 ug/kg): full effect
total tactile hypersensitivity score (tactile hypersensitivity; intraperitoneal, 100 ug/kg, maximum=16, sulprostone 12-14, vehicle 4-6): 5
effect on tactile hypersensitivity (tactile hypersensitivity; oral dose of 300 ug/kg): active
lowering of IOP [1]: lower rabbit IOP
decrease in IOP ([1]; 35 ul of 0.1% solution): 20%
rat locomotor activity (locomotor activity [2]; intraperitoneal doses up to at least 3 mg/kg): did not decrease rat locomotor activity
rat locomotor activity (locomotor activity [2]; oral doses up to at least 10 mg/kg): did not decrease rat locomotor activity
sedation / decrease of locomotor activity (locomotor activity [2]; qualitative statement, no dose): does not sedate rats
margin of safety (non-sedating dose vs effective dose) (locomotor activity [2]; rat locomotor activity vs tactile hypersensitivity doses): ≥ 30 fold

SMILES: O=C(CC1CCCC1)OCC1=CCCC(Cc2c[nH]c(=S)[nH]2)C1 (centres unmarked) [Compound 3, cyclopentyl-acetic acid 5-(2-thioxo-2,3-dihydro-1H-imidazol-4-ylmethyl)-cyclohex-1-enylmethyl ester]
effect on tactile hypersensitivity (tactile hypersensitivity; oral dose of 30 ug/kg): full effect
alleviation of tactile hypersensitivity (tactile hypersensitivity; oral dosing, dose response (FIG. 1)): alleviates tactile hypersensitivity; also recorded: very potent at alleviating the tactile sensitivity in a dose-related manner
lowering of IOP [1]: lower rabbit IOP
decrease in IOP ([1]; 35 ul of 0.03% solution): 30%
sedation (locomotor activity [2]; rats, oral dose of 3 mg/kg): did not sedate
sedation (locomotor activity [3]; mice, oral dose of 3 mg/kg): did not sedate
margin of safety / therapeutic window (locomotor activity [3]; oral, mice or rats (FIG. 4)): > 300 fold

SMILES: Brc1c(N=C2NCCN2)ccc2nccnc12 [brimonidine, reference compound]
activity in mouse model of tactile hypersensitivity (tactile hypersensitivity): active

SMILES: Clc1cccc(Cl)c1N=C1NCCN1 [clonidine, reference compound]
activity in mouse model of tactile hypersensitivity (tactile hypersensitivity): active

SMILES: OCC1=CCCC(Cc2c[nH]c(=S)[nH]2)C1 (centres unmarked) [drawing 35]
Intrinsic activity α1 (α1): 0.93
Intrinsic activity α2A (alpha2A receptor): 0.85
Intrinsic activity α2B (alpha2B receptor): 0.98
Intrinsic activity α2C (alpha2C receptor): 1.10
